# Data published in US6248575A, “Nucleic acids encoding polypeptides having L-amino acid oxidase activity” (Novozymes Biotech, Inc., priority 1999, dated 2001).
# T1: Trichoderma harzianum CBS 223.93 L-amino acid oxidase (Trichoderma harzianum, UniProt A0A2T4A4V3)
# T1 sequence (A0A2T4A4V3 with tags, fused parts or gaps V19I/P71L/S84P/G163K/E317K/D352E/Y353H/V383A/D435A/DEL437-437/D438T/D462E/L570R/R580K/V618I): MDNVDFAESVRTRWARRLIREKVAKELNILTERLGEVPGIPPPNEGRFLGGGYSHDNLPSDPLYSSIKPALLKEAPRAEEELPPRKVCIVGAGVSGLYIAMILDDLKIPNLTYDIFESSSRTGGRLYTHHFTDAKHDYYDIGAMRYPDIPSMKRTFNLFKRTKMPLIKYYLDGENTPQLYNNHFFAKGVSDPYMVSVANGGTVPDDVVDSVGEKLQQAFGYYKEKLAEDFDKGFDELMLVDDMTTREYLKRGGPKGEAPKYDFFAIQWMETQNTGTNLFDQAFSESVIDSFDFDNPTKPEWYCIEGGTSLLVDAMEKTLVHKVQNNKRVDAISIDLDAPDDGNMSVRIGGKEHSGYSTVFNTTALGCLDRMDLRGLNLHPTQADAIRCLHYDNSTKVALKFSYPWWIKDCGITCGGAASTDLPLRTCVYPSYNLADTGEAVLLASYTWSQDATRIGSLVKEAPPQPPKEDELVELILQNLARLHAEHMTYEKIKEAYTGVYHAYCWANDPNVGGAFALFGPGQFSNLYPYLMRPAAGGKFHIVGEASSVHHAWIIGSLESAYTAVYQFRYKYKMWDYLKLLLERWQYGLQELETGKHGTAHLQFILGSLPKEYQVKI
# B1: L-amino acid oxidase: purified L-amino acid oxidase from Trichoderma harzianum CBS 223.93; deduced protein of 617 amino acids (SEQ ID NO. 2) (protein)
# chain: T1 sequence (A0A2T4A4V3 with tags, fused parts or gaps V19I/P71L/S84P/G163K/E317K/D352E/Y353H/V383A/D435A/DEL437-437/D438T/D462E/L570R/R580K/V618I)
# Legend:
# [1] = biological target: T1, Trichoderma harzianum CBS 223.93 L-amino acid oxidase; test: Substrate specificity: specific activity and Km with various L-amino acids as substrates; type: biochemical; settings: for Specific Activity / activity of the L-amino acid oxidase towards the substrate: phosphate buffer pH 8.5, room temperature; for Specific Activity: 20 minutes; for ranking of Km values among substrates: comparison of the substrates of Table 1; for Km: Lineweaver-Burk plots (1/v versus 1/s)
# Protocol: (§1) In the following characterization experiments, detection of H2 O2 was carried out using a Coprinus cinereus peroxidase (CiP), obtained according to WO 92/16634, at a level of 4.5 PODU/ml, and 0.4 mM ABTS in phosphate buffer at pH 7.0. The hydrogen peroxide concentrations were determined relative to a freshly prepared hydrogen peroxide standard solution.
# For determination of substrate specificity, the activity of the L-amino acid oxidase was determined with various L-amino acids as substrates. The L-amino acid oxidase was incubated with the substrate in phosphate buffer at pH 8.5 and room temperature for 20 minutes. Generated hydrogen peroxide was detected using ABTS and CiP as described above. The specific activity was determined as described in Example 2 above.
# Km values for the various substrates were determined by plotting values of 1/v versus 1/s (Lineweaver-Burk plots).
# [2] = Specific activity of the purified L-amino acid oxidase; type: biochemical, Trichoderma harzianum; settings: 50 mM phosphate buffer pH 8.5, 20° C., 1 mM L-arginine as substrate
# Protocol: For purposes of the present invention, L-amino acid oxidase activity is determined according to the procedure described in WO 94/25574 where the hydrogen peroxide produced during the […] of L-arginine is measured by coupling the reaction to a peroxidase in the presence of 2,2'-azinobis(3-ethylbenzothiazoline-6sulfonate) (ABTS) which produces a greenish-blue color at 418 nm. One unit of L-amino acid oxidase activity is defined as 1.0 μmole of hydrogen peroxide produced per minute at 20° C. in 50 mM phosphate buffer at pH 8.5 with 1 mM L-arginine as substrate.
# The specific activity of the purified L-amino acid oxidase was 16 U/mg determined in a 50 mM phosphate buffer at pH 8.5, 20° C. with 1 mM L-arginine as substrate. One unit of enzyme will form 1 μmole of hydrogen peroxide per minute. The amount of protein was quantified assuming that a solution of the L-amino acid oxidase having an optical density of 1 determined at 280 nm contains 1 mg of protein/ml. The L-amino acid oxidase yield was approximately 50 mg of pure protein per liter of culture medium.
# [3] = pH activity profile / pH optimum of the L-amino acid oxidase; type: biochemical, Trichoderma harzianum; settings: 20 minutes, 1 mM L-arginine, 100 mM phosphate buffer; FIG. 1
# Protocol: as §1
# (§2) For determination of the pH optimum, the assay was carried out in two steps. In the first step, the L-amino acid oxidase was incubated for 20 minutes with 1 mM of L-arginine in 100 mM of phosphate buffer at various pH values. In the second step, the generated hydrogen peroxide was detected as described above.
# [4] = pH stability of the L-amino acid oxidase (residual activity); type: physicochemical, Trichoderma harzianum; settings: 1 hour at 40° C., 50 mM phosphate buffer, FIG. 2
# Protocol: as §1, §2
# For determination of pH stability, the L-amino acid oxidase was incubated at various pH values for 1 hour at 40° C. in 50 mM of phosphate buffer. After dilution, residual activity was measured using the two-step procedure described above.
# [5] = Temperature stability of the L-amino acid oxidase (residual activity); type: physicochemical, Trichoderma harzianum; settings: phosphate buffer pH 8.5, 1 hour, FIG. 3
# Protocol: as §1, §2
# For determination of temperature stability, the L-amino acid oxidase was incubated in phosphate buffer at pH 8.5 for 1 hour at various temperatures. After dilution, residual activity was measured using the two-step procedure described above.
molecule,measurement,setting,value
N=C(N)NCCC[C@H](N)C(=O)O [L-arginine],Specific Activity,[1]; Substrate Conc. 1 mM,16 U/mg
same,Specific Activity,[1]; Substrate Conc. 10 mM,30 U/mg
same,ranking of Km values among substrates,[1],lowest Km values
same,preferred substrate,[1]; from the experiments of Table 1,preferred substrate
same,activity of the L-amino acid oxidase towards the substrate,[1],showed activity
NC(=O)C[C@H](N)C(=O)O [L-asparagine],Specific Activity,[1]; Substrate Conc. 80 mM,7 U/mg
same,activity of the L-amino acid oxidase towards the substrate,[1],showed activity
CC(C)C[C@H](N)C(=O)O [L-leucine],Specific Activity,[1]; Substrate Conc. 80 mM,16 U/mg
same,activity of the L-amino acid oxidase towards the substrate,[1],showed activity
NCCCC[C@H](N)C(=O)O [L-lysine],Km,[1],0.2 mM
same,Specific Activity,[1]; Substrate Conc. 1 mM,7 U/mg
same,ranking of Km values among substrates,[1],lowest Km values
same,activity of the L-amino acid oxidase towards the substrate,[1],showed activity
CSCC[C@H](N)C(=O)O [L-methionine],Km,[1],15 mM
same,Specific Activity,[1]; Substrate Conc. 80 mM,8 U/mg
same,activity of the L-amino acid oxidase towards the substrate,[1],showed activity
N[C@@H](Cc1ccccc1)C(=O)O [L-phenylalamine],Specific Activity,[1]; Substrate Conc. 80 mM,25 U/mg
same,activity of the L-amino acid oxidase towards the substrate,[1],showed activity
B1,specific activity of the purified L-amino acid oxidase,[2],16 U/mg
same,pH interval in which activity is shown,[3],from pH below 7 to a pH of approximately 12
same,pH optimum,[3],~9 pH
same,pH stability relative to initial activity,[4]; pH 10,more than 70%
same,pH stability relative to initial activity,[4]; range pH 7-9.5,more than 80%
same,temperature range in which the enzyme is stable,[5],from below 22 °C to above 60 °C
same,temperature stability relative to initial activity,[5]; range 25° C. to 60° C.,more than 80%
